What was measured:
[1] = target: VZV polymerase (Varicella-zoster virus, UniProt P09252); assay: VZV polymerase assay (Table 1); format: biochemical
Experimental: [Worded in the source for another target; this target is reported under the same test.] (§1) The HCMV polymerase assay is performed using a scintillation proximity assay (SPA) as described in several references, such as N.D. Cook, et al., Pharmaceutical Manufacturing International, pages 49-53 (1992); K. Takeuchi, Laboratory Practice, September issue (1992); U.S. Pat. No. 4,568,649 (1986); which are incorporated by reference herein. Reactions are performed in 96-well plates. The assay is conducted in 100 μl volume with 5.4 mM HEPES (pH 7.5), 11.7 mM KCl, 4.5 mM MgCl2, 0.36 mg/ml BSA, and 90 nM ^3H-dTTP. Assays are run with and without CHAPS, (3-[(3-cholamidopropyl)-dimethylammonio]-1-propane-sulfonate) at a final concentration of 2 mM. HCMV polymerase is diluted in enzyme dilution buffer containing 50% glycerol, 250 mM NaCl, 10 mM HEPES (pH 7.5), 100 μg/ml BSA, and 0.01% sodium azide. The HCMV polymerase, which is expressed in recombinant baculovirus-infected SF-9 cells and purified according to literature procedures, is added at 10% (or 10 μl) of the final reaction volume, i.e., […]. Compounds are diluted in 50% DMSO and 10 μl are added to each well. Control wells contain an equivalent concentration of DMSO. Unless noted otherwise, reactions are initiated via the addition of 6 nM biotinylated poly(dA)-oligo(dT) template/primer to reaction mixtures containing the enzyme, substrate, and compounds of interest. Plates are incubated in a 25 C or 37 C H2O bath and terminated via the addition of 40 μl/reaction of 0.5 M EDTA (pH 8) per well. Reactions are terminated within the time-frame during which substrate incorporation is linear and varied depending upon the enzyme and conditions used, i.e., 30 min. for HCMV polymerase. Ten μl of streptavidin-SPA beads (20 mg/ml in PBS/10% glycerol) are added following termination of the reaction. Plates are incubated 10 min. at 37 C, then equilibrated to room temperature, and counted on a Packard Topcount. Linear regressions are performed and IC50's are calculated using computer software. A modified version of the above HCMV polymerase assay is performed as described above, but with the following changes: Compounds are diluted in 100% DMSO until final dilution into assay buffer. In the previous assay, compounds are diluted in 50% DMSO. 4.5 mM dithiotherotol (DTT) is added to the polymerase buffer.

[2] = target: T1, HCMV polymerase (Human cytomegalovirus, UniProt P08546); assay: HCMV polymerase scintillation proximity assay (SPA); format: biochemical; settings: 3H-dTTP incorporation
T1 construct: made in house; host or cells: recombinant baculovirus-infected SF-9 cells
T1 sequence (P08546 whole entry): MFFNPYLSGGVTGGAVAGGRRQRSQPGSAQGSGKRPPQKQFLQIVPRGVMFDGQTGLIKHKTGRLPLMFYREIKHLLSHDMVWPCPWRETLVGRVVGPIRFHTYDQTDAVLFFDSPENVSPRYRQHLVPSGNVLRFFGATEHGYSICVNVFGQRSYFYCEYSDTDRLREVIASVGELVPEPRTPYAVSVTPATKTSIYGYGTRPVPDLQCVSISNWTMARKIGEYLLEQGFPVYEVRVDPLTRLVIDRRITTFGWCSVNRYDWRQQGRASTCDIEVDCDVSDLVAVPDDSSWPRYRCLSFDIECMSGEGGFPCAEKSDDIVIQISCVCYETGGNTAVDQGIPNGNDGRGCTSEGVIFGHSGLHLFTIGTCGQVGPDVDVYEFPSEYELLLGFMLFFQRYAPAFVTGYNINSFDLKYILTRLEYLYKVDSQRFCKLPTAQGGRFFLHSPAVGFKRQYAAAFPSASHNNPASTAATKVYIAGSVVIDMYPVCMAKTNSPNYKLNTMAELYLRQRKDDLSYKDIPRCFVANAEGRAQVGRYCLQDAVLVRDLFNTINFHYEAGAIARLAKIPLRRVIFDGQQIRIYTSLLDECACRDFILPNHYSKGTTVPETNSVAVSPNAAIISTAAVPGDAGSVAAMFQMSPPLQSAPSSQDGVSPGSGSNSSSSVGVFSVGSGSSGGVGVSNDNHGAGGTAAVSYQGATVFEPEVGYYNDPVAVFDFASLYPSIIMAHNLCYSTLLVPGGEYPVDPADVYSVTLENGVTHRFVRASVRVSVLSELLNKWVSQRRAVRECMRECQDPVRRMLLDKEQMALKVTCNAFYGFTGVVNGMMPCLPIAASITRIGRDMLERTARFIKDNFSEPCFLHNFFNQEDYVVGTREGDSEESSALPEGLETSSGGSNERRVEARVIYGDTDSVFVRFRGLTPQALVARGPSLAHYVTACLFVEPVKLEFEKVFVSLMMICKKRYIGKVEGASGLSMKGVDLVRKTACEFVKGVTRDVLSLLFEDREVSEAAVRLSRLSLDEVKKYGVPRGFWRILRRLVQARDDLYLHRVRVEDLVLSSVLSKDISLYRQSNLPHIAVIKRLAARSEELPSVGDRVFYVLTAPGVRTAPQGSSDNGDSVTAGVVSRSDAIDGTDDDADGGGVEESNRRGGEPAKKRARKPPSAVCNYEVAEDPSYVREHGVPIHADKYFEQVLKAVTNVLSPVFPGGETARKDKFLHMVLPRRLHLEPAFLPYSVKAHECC
Experimental: as §1

[3] = target: HSV polymerase (Human herpesvirus 1, UniProt P04293); assay: HSV polymerase assay (Table 1); format: biochemical
Sequence of HSV polymerase (P04293 whole entry): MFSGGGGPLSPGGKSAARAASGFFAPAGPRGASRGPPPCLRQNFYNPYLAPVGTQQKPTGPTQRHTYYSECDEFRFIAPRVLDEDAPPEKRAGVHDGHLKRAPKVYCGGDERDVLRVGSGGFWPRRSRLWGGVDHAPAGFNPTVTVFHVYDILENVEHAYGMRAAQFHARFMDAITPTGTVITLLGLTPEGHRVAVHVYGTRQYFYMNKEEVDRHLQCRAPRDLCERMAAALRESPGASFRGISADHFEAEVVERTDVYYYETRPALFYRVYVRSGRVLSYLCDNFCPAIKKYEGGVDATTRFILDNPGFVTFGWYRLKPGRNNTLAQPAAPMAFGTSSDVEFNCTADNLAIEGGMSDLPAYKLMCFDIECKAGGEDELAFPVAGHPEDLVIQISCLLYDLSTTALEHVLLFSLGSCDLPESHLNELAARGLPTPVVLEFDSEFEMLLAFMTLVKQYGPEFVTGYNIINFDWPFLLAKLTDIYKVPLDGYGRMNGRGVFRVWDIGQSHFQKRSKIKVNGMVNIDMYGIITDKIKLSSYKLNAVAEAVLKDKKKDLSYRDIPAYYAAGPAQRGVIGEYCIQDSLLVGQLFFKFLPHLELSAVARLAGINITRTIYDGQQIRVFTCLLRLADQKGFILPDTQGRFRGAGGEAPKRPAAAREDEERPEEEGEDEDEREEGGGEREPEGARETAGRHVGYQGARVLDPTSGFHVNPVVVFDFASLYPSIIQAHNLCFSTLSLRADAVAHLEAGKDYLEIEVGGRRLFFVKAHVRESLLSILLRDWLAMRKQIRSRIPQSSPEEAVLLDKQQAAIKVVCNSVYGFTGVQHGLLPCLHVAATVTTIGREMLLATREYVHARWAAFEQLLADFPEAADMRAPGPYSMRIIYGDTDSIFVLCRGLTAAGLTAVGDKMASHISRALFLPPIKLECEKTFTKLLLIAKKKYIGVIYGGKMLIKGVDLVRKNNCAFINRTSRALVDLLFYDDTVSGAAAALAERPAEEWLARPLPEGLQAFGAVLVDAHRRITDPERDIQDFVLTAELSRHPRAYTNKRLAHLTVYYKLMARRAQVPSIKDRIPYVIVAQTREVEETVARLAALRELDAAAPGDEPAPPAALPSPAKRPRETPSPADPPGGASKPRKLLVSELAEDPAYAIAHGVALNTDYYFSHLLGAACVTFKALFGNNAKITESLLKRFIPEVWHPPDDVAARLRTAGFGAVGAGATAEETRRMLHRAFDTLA
Experimental: [Worded in the source for another target; this target is reported under the same test.] as §1

Sequence of VZV polymerase (P09252 whole entry): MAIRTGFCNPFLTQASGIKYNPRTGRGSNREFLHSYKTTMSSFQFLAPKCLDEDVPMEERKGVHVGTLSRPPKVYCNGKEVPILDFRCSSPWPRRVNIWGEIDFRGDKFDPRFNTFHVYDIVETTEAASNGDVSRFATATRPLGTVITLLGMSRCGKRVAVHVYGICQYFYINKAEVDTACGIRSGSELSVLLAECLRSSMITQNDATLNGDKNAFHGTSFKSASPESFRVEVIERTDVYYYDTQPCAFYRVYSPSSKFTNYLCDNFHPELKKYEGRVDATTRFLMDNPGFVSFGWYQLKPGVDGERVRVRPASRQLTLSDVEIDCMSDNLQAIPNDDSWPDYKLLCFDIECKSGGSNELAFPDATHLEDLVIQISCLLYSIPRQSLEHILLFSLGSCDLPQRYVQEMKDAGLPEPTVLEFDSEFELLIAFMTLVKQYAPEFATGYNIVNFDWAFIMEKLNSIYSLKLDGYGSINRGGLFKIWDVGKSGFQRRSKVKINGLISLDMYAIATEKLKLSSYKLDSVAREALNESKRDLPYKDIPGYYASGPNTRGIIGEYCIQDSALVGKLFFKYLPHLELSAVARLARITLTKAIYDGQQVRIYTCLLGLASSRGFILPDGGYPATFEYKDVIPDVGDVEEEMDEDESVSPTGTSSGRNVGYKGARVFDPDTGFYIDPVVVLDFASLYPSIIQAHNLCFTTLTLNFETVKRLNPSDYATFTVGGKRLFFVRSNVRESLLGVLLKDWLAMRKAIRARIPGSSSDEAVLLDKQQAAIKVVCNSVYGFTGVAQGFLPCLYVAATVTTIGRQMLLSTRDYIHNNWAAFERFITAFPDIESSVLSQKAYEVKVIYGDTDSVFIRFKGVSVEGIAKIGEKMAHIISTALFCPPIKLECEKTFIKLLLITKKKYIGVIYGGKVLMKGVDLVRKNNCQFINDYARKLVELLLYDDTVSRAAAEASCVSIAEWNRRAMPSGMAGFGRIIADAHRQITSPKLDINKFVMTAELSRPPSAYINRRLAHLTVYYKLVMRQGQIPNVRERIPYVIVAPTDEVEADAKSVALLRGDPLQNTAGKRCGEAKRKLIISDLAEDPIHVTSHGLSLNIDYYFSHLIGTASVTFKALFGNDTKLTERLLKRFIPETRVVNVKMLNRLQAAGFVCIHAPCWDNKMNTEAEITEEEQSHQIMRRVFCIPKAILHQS

IC50 [1] [µM] | melting point [°C] | IC50 [2] [µM] | IC50 [3] [µM] | SMILES
0.31 | 119 to 121 | 0.74 | 0.44 | O=C(NCc1ccc(Cl)cc1)c1cn(-c2cccc(CO)c2)c2ccc(CN3CCOCC3)cc2c1=O [Example 17, N-(4-Chlorobenzyl)-1-(3-(hydroxymethyl)phenyl)-6-(4-morpholinylmethyl)-4-oxo-1,4-dihydro-3-quinolinecarboxamide]
0.29 | 145 to 148 | 0.57 | 0.59 | O=C(NCc1ccc(Cl)cc1)c1cn(-c2cccc(C#CCO)c2)c2ccc(CN3CCOCC3)cc2c1=O [Example 20, N-(4-Chlorobenzyl)-1-(3-(3-hydroxy-1-propynyl)phenyl)-6-(4-morpholinylmethyl)-4-oxo-1,4-dihydro-3-quinolinecarboxamide]
0.48 | 115 to 118 | 1.08 | 0.98 | O=C(NCc1ccc(Cl)cc1)c1cn(-c2cccc(CCCO)c2)c2ccc(CN3CCOCC3)cc2c1=O [Example 25, N-(4-Chlorobenzyl)-1-[3-(3-hydroxypropyl)phenyl]-6-(4-morpholinylmethyl)-4-oxo-1,4-dihydro-3-quinolinecarboxamide]
